Assay results published in publication PMC10799935, “Discovery of a peripheral 5HT2A antagonist as a clinical candidate for metabolic dysfunction-associated steatohepatitis” (Nature Communications, 2024).
Where “and” joins values, the source holds several entries; their conditions need not be identical. Identical values can stand only once.

Key:
[1] = Hepatocyte stability test, dog; type: in vitro ADME; conditions: male, beagle, cryopreserved hepatocytes, pH 7.4, read-out: Hepatocyte stability (% remaining after 3 h)
Procedure: Hepatocyte incubations for the test compound (10 μM final concentration, n = 2 per each time point) were carried out in mouse, rat, dog, monkey and human cryopreserved hepatocytes, resuspended at a density of 0.5 million cells/ml of modified Krebs-Henseleit buffer (KHB). The information regarding the hepatocytes used in the experiment is as follows: liverPool® 10-donor mixed gender human (BioIVT, Cat.No. X008001, lot EAV), male cynomolgus monkey (BioIVT, Cat.No. M00305, lot COJ), male Beagle dog (BioIVT, Cat.No. M00205, lot USY), male Sprague Dawley rat (BioIVT, Cat.No. M00005, lot TQE) and male CD1 mouse (BioIVT, Cat.No.005052, lot LFF). In addition, the compound was also incubated with blank KHB. The final concentration of solvent (DMSO) was 0.1% of the final volume. The incubations were performed for 3 hours at 37°C and pH 7.4. Reactions were terminated at 0 and 180 minutes by the addition of 3 volumes of stop solution (acetonitrile/methanol (2:1, v/v) containing internal standard–diclofenac at 100 ng/ml). Samples (compound spiked buffer and compound spiked hepatocytes, as well as blank samples, i.e. hepatocytes with the same DMSO%) were then centrifuged and aliquots were transferred to 96-deep micronic tubes and frozen at -80 °C until LC-MS/MS analysis. […]

HFD-fed C57BL/6J mice = test: DIO mice: liver histology (H&E), NAFLD activity score (steatosis, inflammation, ballooning); type: in vivo, mouse; parameters: key to Steatosis (NAFLD Activity Score), individual animals / Steatosis score, group mean: steatosis score 0-3 (0 <5% to 3 >66% fat accumulation); key to Total NAFLD Activity Score, difference between medians: Actual (treated vs. Vehicle): total NAS, 0-8 scale (sum of steatosis, inflammation, ballooning); conditions: DIO mice; for Lobular inflammation score, Mean Diff. (Vehicle vs. treated) / Steatosis score, Mean Diff. (Vehicle vs. treated) / Total NAFLD Activity Score, Mean Diff. (Vehicle vs. treated): Dunnett's multiple comparisons test; for Lobular inflammation score, group mean / Steatosis score, group mean: PO
From the text: Epididymal, inguinal, and liver were harvested, fixed in 10% (w/v) neutral buffered formalin solution (Sigma-Aldrich), and embedded in paraffin. Five-micron-thick tissue sections were deparaffinized, rehydrated, and stained with hematoxylin and eosin (H&E)[10]. The total NAFLD activity score (NAS) is a widely used measure of grading for steatosis, lobular inflammation, and ballooning. The total NAS ranges from 0-8 and is the sum of unweighted scores for steatosis (0: <5%, 1: 5 ~ 33%, 2: 33 ~ 66%, 3: >66% fat accumulation in the liver), lobular inflammation (0: no foci inflammation in x200 field, 1: <2 foci inflammation, 2: 2 ~ 4 foci inflammation, 3: >4 foci inflammation), and hepatocellular ballooning (0: none, 1: few ballooning cells, 2: prominent ballooning cells). MASH was diagnosed when NAS was >5, while non-MASH was diagnosed when NAS was <4. According to the MASH CRN scoring system, a certified pathologist determined the NAS[39]. The histological scoring was performed blindly, without knowledge of any other information.

[2] = Phase 1 clinical trial, SAD (single ascending dose) study; conditions: human, in vivo
IL-1β = test: CDAHFD mice: IL-1β immunohistochemical staining; type: in vivo, mouse; parameters: IL-1β immunohistochemical staining (IL1b area), individual mouse / IL-1β immunohistochemical staining (IL1b area), Average: unit not given here; conditions: for IL-1β immunohistochemical staining (IL1b area), Average / IL-1β immunohistochemical staining (IL1b area), individual mouse: CDAHFD mice; for IL-1β immunohistochemical staining (IL1b area), Average: group average n=4, CDAHFD+Vehicle 8.870, Vehicle 2.958; for IL-1β immunohistochemical staining (IL1b area), individual mouse: individual animals No. 1-4 (Fig.4h)
From the text: C57BL/6 J male mice were purchased from the Japan SLC. Inc (Hamamatsu, Japan). Mice (5 weeks old) were fed Teklad Certitied Irradiated Global 18% protein rodent diet purchased from Dooyeol Biotech Co. Ltd (Seoul, South Korea) during the acclimation period. The liver fibrosis/inflammation-induced groups were CDAHFD-fed (A06071302, Research diet). […] All animal experiments complied with the relevant ethical regulations.
Mouse liver tissues were fixed in 4% formalin solution (Sigma–Aldrich, St. Louis, MO, USA) and embedded in paraffin. 4-μm-thick liver sections were deparaffinized in xylene, and rehydrated through descending grades of ethanol. To evaluate liver fibrosis, sections were stained with Sirius red solution and subjected to immunohistochemical staining. Tissue sections, after deparaffinization, underwent a 16-hour incubation in a solution containing 0.1% Direct Red 80 (365548, Sigma-Aldrich) dissolved in Picric acid (P-201, Spectrum Chemical, CA, USA) for Sirius red staining. The sections were briefly immersed in a 0.01 N HCl solution (1129, Ducksan, Republic of Korea) for 2 min. and then rinsed with distilled water for destaining. Subsequently, the sections underwent dehydration through […] grades of ethanol. Immunohistochemical staining was performed using the Polyview Plus HRP-DAB (anti-Rabbit) Kit (ENZ-KIT159-0150, ENZO Life Science, NY, USA) following the manufacturers’ instructions. Deparaffinized sections were boiled in IHC-TekTM Epitope Retrieval solution (IW-1100, IHCWORLD, MD, USA) for 45 min., cooled for 1 h, incubated in a 3% H2O2 solution (69355-0350, JUNSEI, Japan) for 15 min., washed, and then incubated overnight with primary antibodies (α-SMA, ab5694, Abcam, 1:500 dilution; TNF-α, ab6671, Abcam, 1:100 dilution and IL-1β, ab9722, Abcam, 1:100 dilution). Subsequently, the sections were treated with Polyview Plus HRP for 2 h and developed with DAB chromogen/substrate. Stained […] sections were confirmed by light microscopy (Olympus BX53 upright microscope, Tokyo, Japan). The degree of hepatic fibrosis and immunohistochemical staining was quantified by morphometric analysis of stained liver sections using NIH ImageJ software.

Cc1nc2n(c(=O)c1CCN1CCC(=C3c4ccc(Cl)cc4CCc4cccnc43)CC1)CCCC2O (stereo not drawn) [Compound 11c]
remaining at 3 h, 10 μM [1]: 88.5% | steatosis, lobular inflammation, and hepatocyte ballooning in liver tissue (H&E) (HFD-fed C57BL/6J mice; 5 and 10 mpk, dose-dependent manner): markedly reduced | Hepatocyte ballooning score, difference between medians: Actual (treated vs. Vehicle) (HFD-fed C57BL/6J mice; 5mpk): 0 | Lobular inflammation score, difference between medians: Actual (treated vs. Vehicle) (HFD-fed C57BL/6J mice; 5mpk): -0.5 | Steatosis score, difference between medians: Actual (treated vs. Vehicle) (HFD-fed C57BL/6J mice; 5mpk): 0 | Total NAFLD Activity Score, difference between medians: Actual (treated vs. Vehicle) (HFD-fed C57BL/6J mice; 5mpk): -1.5 | Lobular inflammation score, Mean Diff. (Vehicle vs. treated) (HFD-fed C57BL/6J mice; 5mpk): 0.3333 | Steatosis score, Mean Diff. (Vehicle vs. treated) (HFD-fed C57BL/6J mice; 5mpk): 0 | Total NAFLD Activity Score, Mean Diff. (Vehicle vs. treated) (HFD-fed C57BL/6J mice; 5mpk): 1.071 | Lobular inflammation score, group median (HFD-fed C57BL/6J mice; 5mpk, Mann-Whitney analysis): 1.500, n=6 | Steatosis score, group median (HFD-fed C57BL/6J mice; 5mpk, Mann-Whitney analysis): 2.000, n=6 | Total NAFLD Activity Score, group median (HFD-fed C57BL/6J mice; 5mpk, Mann-Whitney analysis): 5.000, n=7 | Hepatocyte ballooning score, difference between medians: Actual (treated vs. Vehicle) (HFD-fed C57BL/6J mice; 10mpk): -1 | Lobular inflammation score, difference between medians: Actual (treated vs. Vehicle) (HFD-fed C57BL/6J mice; 10mpk): -1 | Steatosis score, difference between medians: Actual (treated vs. Vehicle) (HFD-fed C57BL/6J mice; 10mpk): -1.5 | Total NAFLD Activity Score, difference between medians: Actual (treated vs. Vehicle) (HFD-fed C57BL/6J mice; 10mpk): -3.5 | Lobular inflammation score, Mean Diff. (Vehicle vs. treated) (HFD-fed C57BL/6J mice; 10mpk): 0.8333 | Steatosis score, Mean Diff. (Vehicle vs. treated) (HFD-fed C57BL/6J mice; 10mpk): 1.5 | Total NAFLD Activity Score, Mean Diff. (Vehicle vs. treated) (HFD-fed C57BL/6J mice; 10mpk): 3.667 | Hepatocyte ballooning score, group median (HFD-fed C57BL/6J mice; 10mpk, Mann-Whitney analysis): 1.000, n=6 | Lobular inflammation score, group median (HFD-fed C57BL/6J mice; 10mpk, Mann-Whitney analysis): 1.000, n=6 | Steatosis score, group median (HFD-fed C57BL/6J mice; 10mpk, Mann-Whitney analysis): 0.5000, n=6 | Total NAFLD Activity Score, group median (HFD-fed C57BL/6J mice; 10mpk, Mann-Whitney analysis): 3.000, n=6 | Lobular inflammation score, group mean (HFD-fed C57BL/6J mice; 5mpk): 1.5 | Steatosis score, group mean (HFD-fed C57BL/6J mice; 5mpk, 5 mg/kg): 2 | Steatosis score, group mean (HFD-fed C57BL/6J mice; 10mpk): 0.5 | Lobular inflammation score, group mean (HFD-fed C57BL/6J mice; 10mpk, 10 mg/kg): 1 | half-life [2]: > 10 h | IL-1β immunohistochemical staining (IL1b area), Average (IL-1β; 11c 5 mpk): 4.503 | IL-1β immunohistochemical staining (IL1b area), individual mouse (IL-1β; 11c 5 mpk): 6.500 and 6.265 and 2.688 and 2.559 | IL-1β immunohistochemical staining (IL1b area), Average (IL-1β; 11c 10mpk): 3.142 | IL-1β immunohistochemical staining (IL1b area), individual mouse (IL-1β; 11c 10mpk): 2.228 and 4.531 and 2.370 and 3.440 | IL-1β expression (immunohistochemical staining) (IL-1β; CDAHFD-fed 11c vs CDAHFD-fed vehicle group): significant decrease
